From PubChem BioAssay (NCI)
Several values for one entry are separate records, joined by “and”; a condition that tells them apart may be missing. Equal entries are not always repeated.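 Briefly, cells in 96-well plates were exposed to five compound concentrations for 48 h, and endpoints were estimated by linear interpolation. The concentration for 50% growth inhibition is given as GI50. The concentration for full growth arrest is given as TGI.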

Tests used:
Experiment in all cases: growth of human tumour cells (NCI), 48 h
CCRF-CEM leukemia = tested on: CCRF-CEM leukemia
DU-145 prostate = tested on: DU-145 prostate
EKVX NSCLC = tested on: EKVX NSCLC
HCT-116 colon = tested on: HCT-116 colon
NCI-H522 lung = tested on: NCI-H522 lung
NCI/ADR-RES ovarian = tested on: NCI/ADR-RES ovarian
OVCAR-5 ovarian = tested on: OVCAR-5 ovarian
OVCAR-8 ovarian = tested on: OVCAR-8 ovarian
RPMI-8226 leukemia = tested on: RPMI-8226 leukemia
UACC-257 melanoma = tested on: UACC-257 melanoma

For `CC(=O)OCc1ccc2c(c1)C(O)NC(=O)O2` (stereo not given), the TGI (CCRF-CEM leukemia) was 40.4 µM, the TGI (DU-145 prostate) was over 100 µM and the TGI (EKVX NSCLC) was over 100 µM. For the same molecule, the TGI (HCT-116 colon) was over 100 µM, the TGI (NCI-H522 lung) was over 100 µM and the TGI (NCI/ADR-RES ovarian) was over 100 µM. For the same molecule, the TGI (OVCAR-5 ovarian) was over 100 µM, the TGI (OVCAR-8 ovarian) was over 100 µM and the TGI (RPMI-8226 leukemia) was 73.6 µM. It also gave a TGI (UACC-257 melanoma) of over 100 µM.

For `C=CC(=O)Nc1cc(Nc2nccc(-c3cn(C)c4ccccc34)n2)c(OC)cc1N(C)CCN(C)C`, the GI50 (CCRF-CEM leukemia) was 1.61 µM and 2.19 µM, the TGI (CCRF-CEM leukemia) was 5.84 µM and 5.33 µM and the GI50 (DU-145 prostate) was 1.76 µM and 1.33 µM. The TGI (DU-145 prostate) was 12 µM and > 10 µM, the GI50 (EKVX NSCLC) was 0.751 µM and 0.2 µM and the TGI (EKVX NSCLC) was 4.08 µM and 3.4 µM. For the same molecule, the GI50 (HCT-116 colon) was 1.72 µM and 1.51 µM, the TGI (HCT-116 colon) was 3.3 µM and 2.96 µM and the GI50 (NCI-H522 lung) was 0.169 µM and 0.0657 µM. The TGI (NCI-H522 lung) was 1.98 µM and 1.53 µM, the GI50 (NCI/ADR-RES ovarian) was 1.85 µM and 1.45 µM and the TGI (NCI/ADR-RES ovarian) was 9.57 µM and 8.18 µM. The GI50 (OVCAR-5 ovarian) was 1.3 µM and 1.29 µM, the TGI (OVCAR-5 ovarian) was 2.95 µM and 6.55 µM and the GI50 (OVCAR-8 ovarian) was 2.04 µM and 1.57 µM. For the same molecule, the TGI (OVCAR-8 ovarian) was 5.89 µM and 4.18 µM, the GI50 (RPMI-8226 leukemia) was 1.95 µM and 1.45 µM and the TGI (RPMI-8226 leukemia) was 6.65 µM and 4.08 µM. For the same molecule, the GI50 (UACC-257 melanoma) was 1.71 µM and 1.8 µM and the TGI (UACC-257 melanoma) was 3.27 µM and 3.37 µM.

For `COCCn1cc(-c2nc(-c3cc4cccnc4[nH]3)cs2)c2cc(OC)ccc21`, the GI50 (CCRF-CEM leukemia) was 4.54 µM, the TGI (CCRF-CEM leukemia) was over 100 µM and the GI50 (DU-145 prostate) was 3.96 µM. The TGI (DU-145 prostate) was 56.1 µM, the GI50 (EKVX NSCLC) was 0.0827 µM and the TGI (EKVX NSCLC) was 4.43 µM. For the same molecule, the GI50 (HCT-116 colon) was 3.49 µM, the TGI (HCT-116 colon) was 16 µM and the GI50 (NCI-H522 lung) was 2.99 µM. For the same molecule, the TGI (NCI-H522 lung) was 21 µM, the GI50 (NCI/ADR-RES ovarian) was 2.95 µM and the TGI (NCI/ADR-RES ovarian) was 23.8 µM. It also gave a GI50 (OVCAR-5 ovarian) of 0.524 µM, a TGI (OVCAR-5 ovarian) of over 96.4 µM and a GI50 (OVCAR-8 ovarian) of 3.56 µM. The TGI (OVCAR-8 ovarian) was 45.3 µM, the GI50 (RPMI-8226 leukemia) was 3.94 µM and the TGI (RPMI-8226 leukemia) was over 36.2 µM. It also gave a GI50 (UACC-257 melanoma) of 4.26 µM and a TGI (UACC-257 melanoma) of 9.81 µM.

With `OC(c1cc(C(F)(F)F)nc2c(C(F)(F)F)cccc12)C1CCCCN1` (stereo not given) the GI50 (CCRF-CEM leukemia) was 3.04 µM, the TGI (CCRF-CEM leukemia) was 9.13 µM and the GI50 (DU-145 prostate) was 2.76 µM. The TGI (DU-145 prostate) was 6.16 µM, the GI50 (EKVX NSCLC) was 2.3 µM and the TGI (EKVX NSCLC) was 8.63 µM. It also gave a GI50 (HCT-116 colon) of 1.79 µM, a TGI (HCT-116 colon) of 3.22 µM and a GI50 (NCI-H522 lung) of 1.65 µM. It also gave a TGI (NCI-H522 lung) of 3.2 µM, a GI50 (NCI/ADR-RES ovarian) of 2.31 µM and a TGI (NCI/ADR-RES ovarian) of 5.95 µM. The GI50 (OVCAR-5 ovarian) was 2.88 µM, the TGI (OVCAR-5 ovarian) was 10.4 µM and the GI50 (OVCAR-8 ovarian) was 1.97 µM. The TGI (OVCAR-8 ovarian) was 4.24 µM, the GI50 (RPMI-8226 leukemia) was 3.22 µM and the TGI (RPMI-8226 leukemia) was 11.5 µM. It also gave a GI50 (UACC-257 melanoma) of 2.2 µM and a TGI (UACC-257 melanoma) of 6.53 µM.

Molecule `COc1ccc(C(c2cc(OC)c(OC)c(OC)c2)n2cncn2)cc1O` (stereo not given) has a GI50 (CCRF-CEM leukemia) of 0.402 µM, a TGI (CCRF-CEM leukemia) of over 100 µM and a GI50 (DU-145 prostate) of 0.531 µM. The TGI (DU-145 prostate) was over 100 µM, the GI50 (EKVX NSCLC) was 2.24 µM and the TGI (EKVX NSCLC) was over 100 µM. It also gave a GI50 (HCT-116 colon) of 0.448 µM, a TGI (HCT-116 colon) of over 100 µM and a GI50 (NCI-H522 lung) of 0.395 µM. The TGI (NCI-H522 lung) was 2.37 µM, the GI50 (NCI/ADR-RES ovarian) was 1.18 µM and the TGI (NCI/ADR-RES ovarian) was over 100 µM. It also gave a GI50 (OVCAR-5 ovarian) of 1.99 µM, a TGI (OVCAR-5 ovarian) of over 100 µM and a GI50 (OVCAR-8 ovarian) of 1.14 µM. It also gave a TGI (OVCAR-8 ovarian) of over 100 µM, a GI50 (RPMI-8226 leukemia) of 0.452 µM and a TGI (RPMI-8226 leukemia) of over 100 µM. For the same molecule, the GI50 (UACC-257 melanoma) was over 100 µM and the TGI (UACC-257 melanoma) was over 100 µM.

`COc1c2ccccc2c(OC)c2[nH]c(=O)ccc12` was tested, and the GI50 (CCRF-CEM leukemia) was over 24.5 µM, the TGI (CCRF-CEM leukemia) was over 100 µM and the GI50 (DU-145 prostate) was 1.54 µM. It also gave a TGI (DU-145 prostate) of 3.32 µM, a GI50 (EKVX NSCLC) of 2.83 µM and a TGI (EKVX NSCLC) of over 100 µM. It also gave a GI50 (HCT-116 colon) of 4.98 µM, a TGI (HCT-116 colon) of over 100 µM and a GI50 (NCI-H522 lung) of 7.73 µM. For the same molecule, the TGI (NCI-H522 lung) was over 100 µM, the GI50 (NCI/ADR-RES ovarian) was 6.51 µM and the TGI (NCI/ADR-RES ovarian) was over 100 µM. It also gave a GI50 (OVCAR-5 ovarian) of 8.02 µM, a TGI (OVCAR-5 ovarian) of over 85.4 µM and a GI50 (OVCAR-8 ovarian) of 13.6 µM. It also gave a TGI (OVCAR-8 ovarian) of over 100 µM, a GI50 (RPMI-8226 leukemia) of 12.6 µM and a TGI (RPMI-8226 leukemia) of over 100 µM. The GI50 (UACC-257 melanoma) was 2.5 µM and the TGI (UACC-257 melanoma) was 6.39 µM.

For `CC(=O)Nc1cc2ccc(=O)oc2cc1Cl`, the TGI (CCRF-CEM leukemia) was over 100 µM, the TGI (DU-145 prostate) was over 100 µM and the TGI (EKVX NSCLC) was over 100 µM. For the same molecule, the TGI (HCT-116 colon) was over 100 µM, the TGI (NCI-H522 lung) was over 100 µM and the TGI (NCI/ADR-RES ovarian) was over 100 µM. It also gave a TGI (OVCAR-5 ovarian) of over 100 µM, a TGI (OVCAR-8 ovarian) of over 100 µM and a TGI (RPMI-8226 leukemia) of over 100 µM. It also gave a TGI (UACC-257 melanoma) of over 100 µM.

`C=C(C)C(=O)O[C@@H]1C[C@@]2(C)O[C@@H]2C[C@H](O)/C(C)=C/[C@H]2OC(=O)C(=C)[C@@H]21` gave a TGI (CCRF-CEM leukemia) of 63.6 µM, a TGI (DU-145 prostate) of over 100 µM and a TGI (EKVX NSCLC) of over 100 µM. It also gave a TGI (HCT-116 colon) of over 100 µM, a TGI (NCI-H522 lung) of 31.6 µM and a TGI (NCI/ADR-RES ovarian) of over 100 µM. The TGI (OVCAR-5 ovarian) was over 100 µM, the TGI (OVCAR-8 ovarian) was over 100 µM and the TGI (RPMI-8226 leukemia) was over 100 µM. It also gave a TGI (UACC-257 melanoma) of over 100 µM.
